Measurements from patent publication US7557109B2, “Treatment for attention-deficit hyperactivity disorder” (priority 2001, dated 2009).

Columns and labels:
[1] = system: 5-HT1B knockout (1BKO) mice; experiment: DRL-36s schedule after FR5 conditioning, 5-HT1B knockout mice; format: in vivo
Procedure: Experiments were conducted in eight identical mouse operant chambers (16×14×13 cm) with stainless steel grid floors (ENV-307M; Med Associates Inc., Georgia, Vt., USA) housed in sound-insulating and ventilated cubicles. Each chamber was equipped with two ultra-sensitive retractable levers, one on each side of a food cup containing photocells to register nose poke behavior and in which a pellet dispenser delivered 20 mg food pellets (Formula A/I, P.J. Noyes Company Inc., Lancaster, N.H., USA). A red house light (50 lux) was located in the center of the wall opposite to the food cup and levers. Stimulus lights were located above each lever and above the food cup. Experimental sessions were controlled and data were recorded by a computer.
Mice trained on DRL procedure first received operant conditioning. DRL-36s task was adapted from procedures used in rats (O'Donnell and Seiden, supra). Briefly, mice first learned to respond for food under a DRL 6 sec schedule, which means that mice had to wait at least 6 seconds between successive lever presses in order to obtain a food reward. Subsequently the schedule requirement was increased every session in steps of 6 sec to 36 sec (DRL 36 sec). Each session started with the illumination of the house light, the stimulus light above the food cup and the presentation of the left lever for the duration of the session. […] If the mouse presses too soon, no reinforcement is given, the clock is reset to zero, and a new 36-sec waiting period starts. In this way, the DRL-36s schedule task primarily measures waiting strategies which reflect hyperactivity-impulsivity behaviors associated with ADHD. Animals were trained until performances on the DRL 36 sec schedule had stabilized (approximately 25 sessions). All training sessions lasted 60 min and were conducted 5 days per week from Monday-Friday. The total number of lever presses (responses), the total number of reinforcements, and the inter-response times (IRT) are recorded.
Data were analyzed as described elsewhere (Richards et al., J. Exp. Anal. Behav. 60:361-385, 1993; Sabol et al., Psychopharmacology 121:57-65, 1995). The inter-response time (IRT) analysis included three measures for the characterization of DRL 36 sec IRT distributions: peak area, peak location and burst ratio. Only peak area (PkA) and peak location (PkL) are presented. The PkA measure is the area of the obtained IRT distribution of a mouse above the corresponding negative exponential, a computation based on mean of obtained IRT durations excluding the burst component of IRT<3 sec (see Richards et al., supra, for details). […] PkL is calculated as the median of the area of the obtained IRT distribution above the corresponding negative exponential. […]

[2] = target: dopamine receptors; conditions: read-out: Ki, affinity for dopamine receptors; cited from earlier work
[3] = in vivo; cited from earlier work
[4] = broad range of doses; cited from earlier work

c1cc2c(c(N3CCNCC3)c1)OCCO2 [eltoprazine, 1-(2,3-dihydro-1,4-benzodioxanyl-5-yl) piperazine]
number of reinforcements ([1]; 0.5 mg/kg and 1 mg/kg i.p. (FIG. 13A)): significantly decreased reinforcements | response rate ([1]; 0.5 mg/kg i.p. (FIG. 13B)): significantly decreased response rates | Ki [2]: > 1000 nM | absolute bioavailability [3]: about 95% | cumulative renal excretion of unchanged eltoprazine [3]: about 40% | dose dependence of plasma concentrations [3]: increase in a linear dose-dependent manner | plasma elimination half-life [3]: 5 to 12 h | terminal half-life [3]: 7 to 9 h | time to maximum plasma concentration after administration [3]: 1 to 4 h | overall safety and tolerance [4]: good
